The term IC50 denotes the concentration at which inhibition is half-maximal. As a reminder, the log P is the decadic logarithm of the partition coefficient of the neutral form, usually between octanol and water. A high value points to higher lipophilicity.

Where two headings read alike, the source gives them in different places.

Results on 2 compounds are retold here after US20150299233A1, “COMPOSITIONS AND METHODS COMPRISING RHENIUM FOR THE TREATMENT OF CANCERS” (Massachusetts Institute of Technology, priority 2014, published 2015).

The test system of data set [1] is HeLa cervical adenocarcinoma cells. Nature of the data set: MTT cytotoxicity assay, HeLa cells. It counts as cell-based, human.
The next data set relates to U2OS. Nature of the data set: MTT cytotoxicity assay, U2OS cells. It counts as cell-based, human.
Data set [2] relates to cisplatin-sensitive cells (A2780). Nature of the data set: MTT cytotoxicity assay, A2780 cells. It counts as cell-based, human. On the technique in general: Tetrazolium dyes change colour on reduction, which living cells bring about.
Data set [3] deals with MCF-7 (breast adenocarcinoma). The experiment in a line: MTT cytotoxicity assay, MCF-7 cells. It counts as cell-based, human. The settings on record: Table 2; cisplatin-resistant cell line; 72 h exposure.
The subject of data set [4] is PC-3 (prostate adenocarcinoma). The experiment in a line: MTT cytotoxicity assay, PC-3 cells. Particulars: Table 2; cisplatin-resistant cell line; 72 h exposure. The class given is cell-based, human.
Data set [5] is described as follows: Lipophilicity, partition between octanol and water. Particulars: experimentally determined. It counts as physicochemical.
Data set [6] deals with A549 cells. Nature of the data set: Cytotoxicity in the presence of cell death inhibitors, A549 cells. It counts as cell-based, human. Particulars: for effect of co-treatment with IM-54 on toxicity: IM-54 10 μM, FIG. 1B; for effect of co-incubation with necrostatin-1 on toxicity, A549: necrostatin-1 60 μM, t test p<0.05, FIG. 1B.
Protocol: In order to determine the cell-killing mechanism of 1 and 2, cytotoxicity studies in the presence of apoptosis and necrosis inhibitors were conducted. […] The possibility that 1 and 2 induce necroptosis was then investigated. […] To determine whether 1 and 2 induced necroptosis and/or uncontrolled necrosis, cytotoxicity studies were conducted in the presence of necrostatin-1 (60 μM) and IM-54 (10 μM), an inhibitor of H2O2-induced necrosis.
Cytotoxicity MTT Assay. […] Cells (2×10^3 cells/well) were seeded in a 96-well plate. […] 1 and 2 were prepared as 10 mM solutions in DMSO and diluted using media. The final concentration of DMSO in each well was 0.5%, and this amount was also present in the untreated control. After 72 h, the medium was removed, 200 μL of a 0.4 mg/mL solution of MTT in DMEM, RPMI, or McCoy's 5A was added, and the plate was incubated for an additional 1-2 h. The DMEM/MTT, RPMI/MTT, or McCoy's 5A/MTT mixture was aspirated, and 200 μL of DMSO was added to dissolve the resulting purple formazan crystals. The absorbance of the solution wells was read at 550 nm. Absorbance values were normalized to DMSO-containing control wells and plotted as the concentration of test compound versus % cell viability. IC50 values were interpolated from the resulting dose-dependent curves. The reported IC50 values are the average from at least three independent experiments, each of which consisted of six replicates per concentration level.
For specific cell death inhibitor assays, inhibitors of necroptosis (necrostatin-1, 60 μM), H2O2-induced necrosis (IM-54, 10 μM), and apoptosis (v-VAD-FMK, 5 μM) were added to cells and incubated for 1 h prior to treatment with the test compounds.
Data set [7] has as its system A549 cells. Nature of the data set: Intracellular ROS assay (DCFH-DA, flow cytometry). It counts as cell-based, human. Particulars: for induced ROS production in the presence of necrostatin-1: 20 μM for 12 h with necrostatin-1 60 μM; for intracellular ROS versus untreated control cells: 1, 2, shikonin 20 μM for 12 h, H2O2 1 mM for 1 h. The protocol:
Characterization of Necroptotic Features. Having established that necrosome formation is a determinant of 1 and 2 activity, additional studies were performed to understand the cascade of events leading from necrosome formation to cell death. Necrosomes generate abnormally high levels of mitochondrial ROS, leading to ATP depletion and eventual degradation of the mitochondrial membrane potential. With this fact in mind, intracellular ROS production was quantified by flow cytometry using 6-carboxy-2′,7′-dichlorodihydrofluorescein diacetate (DCFH-DA), a well-established ROS indicator.
In FIG. 2: (A) Representative histograms displaying the green fluorescence emitted by DCFH-DA-stained A549 cells (i) and A549 cells treated with 1(20 μM for 12 h) (iii) or 1 (20 μM for 12 h) with nectrostatin-1 (60 μM for 12 h) (ii). (B) Representative histograms displaying the green fluorescence emitted by DCFH-DA-stained A549 cells (i) and A549 cells treated with 2 (20 μM for 12 h) (iii) or 2 (20 μM for 12 h) with nectrostatin-1 (60 μM for 12 h) (ii). (C) Representative histograms displaying the green fluorescence emitted by DCFH-DA-stained A549 cells (i) and A549 cells treated withH2O2 (1mM for 1 h) (iii). (D) Representative histograms displaying the green fluorescence emitted by DCFH-DA-stained A549 cells (i) and A549 cells treated with shikonin (20 μM for 12 h) (iii).
Intracellular ROS Assay. Untreated and treated A549 cells (1.5×10^6 cells/well) grown in six-well plates were incubated with 6-carboxy-2′,7′-dichlorodihydrofluorescein diacetate (20 μM) for 30 min. The cells were then washed with PBS (1 mL x 3), harvested, and analyzed by using a FACSCalibur-HTS flow cytometer (BD Biosciences) (20 000 events per sample were acquired). The FL1 channel was used to assess intracellular ROS levels. Cell populations were analyzed using the FlowJo software (Tree Star).
(In general: In flow cytometry, cells or beads pass a laser one at a time.)

For data set [8], the system named is MEFs PARP-1+/+ and MEFs PARP-1−/− cells. Nature of the data set: Cytotoxicity in MEFs PARP-1+/+ versus PARP-1-/- cells. The class given is cell-based, mouse. Particulars: 72 h, FIG. 3A. The protocol:
(PARP-1). PARP-1 is a nuclear enzyme that is involved in DNA repair and transcriptional regulation. DNA damage can trigger PARP-1 activity, resulting in ATP and NAD depletion and bioenergetics- mediated cell death. To determine whether PARP-1 activity is a factor in 1- and 2-mediated cell death, cytotoxicity assays were conducted with wild-type mouse embryonic fibroblast cells (MEFs PARP-1+/+) and the corresponding PARP-1-null cells (MEFs PARP-1−/−). […] Recently, p53 has also been reported to play a role in necroptosis. p53 induces cathepsin Q, a lysosomal protease that cooperates with ROS to execute necrosis. To investigate whether p53 might play a role in 1- and 2-mediated necroptosis, cytotoxicity studies were conducted with HCT116 p53^+/+ nd HCT116 p53^−/− cells.
Cell Cycle Analysis. To gain a more complete understanding of the cellular response evoked, DNA-flow cytometric studies were conducted to determine the effect of 1 and 2 on the cell cycle. A549 cells were treated with 1 or 2 (2 μM), and the cell cycle was determined over the course of 72 h. […] Upon further incubation (72 h), large populations of cell debris were detected (32%), indicative of cell death. […]
Cytotoxicity MTT Assay. […] The absorbance of the solution wells was read at 550 nm. Absorbance values were normalized to DMSO-containing control wells and plotted as the concentration of test compound versus % cell viability. […]

The mark [9] stands for this setting: Table 1, 72 h exposure, ± standard deviation, read-out: IC50 HeLa cervical adenocarcinoma.
The mark [10] stands for this setting: Table A, average of three independent determinations, read-out: IC50 HeLa (cervical).
Setting [11] is: Table 1, 72 h exposure, ± standard deviation, read-out: IC50 U2OS bone osteosarcoma.
The mark [12] stands for this setting: Table A, average of three independent determinations, read-out: IC50 U2OS (bone).
Where [13] appears, read: Table 1, 72 h exposure, ± standard deviation, read-out: IC50 A2780 ovarian carcinoma.
Where [14] appears, read: Table A, average of three independent determinations, read-out: IC50 A2780 (ovarian).

In the case of `C[O][Re](=[O])([Cl])[Cl].c1ccc(-c2ccnc3c2ccc2c(-c4ccccc4)ccnc23)cc1` [Compound 1, [ReO(OMe)(4,7-diphenyl-1,10-phenanthroline)-Cl2]], the IC50 in data set [1] (setting [9]) was found to be 445 ± 4 nM; in [1] (setting [10]), 445 nM; in the data set with U2OS (setting [11]), 274 ± 6 nM; in the data set on U2OS (setting [12]), 274 ± 6 nM; in [2] (setting [13]), 670 ± 40 nM; in [2] (setting [14]), 670 ± 40 nM. Further, the values for the half-inhibitory concentration (IC50) in data set [3] and in data set [4] were 285 ± 35 nM and 270 ± 14 nM, respectively. For the same compound, the “log P” value in data set [5] is recorded as 1.20. Also, in the data set on A549 cells [6], the “effect of co-treatment with IM-54 on toxicity” value was “did not significantly affect the toxicity”. The “effect of co-incubation with necrostatin-1 on toxicity, A549” value in the data set with A549 cells [6] is “markedly decreased the toxicity”. Moreover, in the data set with A549 cells [7], the “induced ROS production in the presence of necrostatin-1” value is “attenuated”. The “intracellular ROS versus untreated control cells” value in the data set with A549 cells [7] is “markedly higher levels of ROS”. The “IC50 in MEFs PARP-1+/+ compared with MEFs PARP-1−/−” value in data set [8] is “similar”.
Regarding `C[O][Re-2]1(=[O])([Cl])([Cl])[n+]2cc(C)c(C)c3ccc4c(C)c(C)c[n+]1c4c32` [Compound 2, [ReO(OMe)(3,4,7,8-tetramethyl-1,10-phenanthroline)Cl2]], the half-inhibitory concentration (IC50) in data set [1] (setting [9]) turned out to be 695 ± 21 nM; in data set [1] (setting [10]), 695 ± 21 nM; in the data set with U2OS (setting [11]), 209 ± 31 nM; in the data set with U2OS (setting [12]), 209 ± 31 nM; in data set [2] (setting [13]) it was 150 ± 10 nM; in [2] (setting [14]), 150 ± 10 nM. For the same compound, the concentration for half-maximal inhibition (IC50) in [3] is 805 ± 21 nM; in [4], 780 ± 10 nM. For the same compound, the lipophilicity (log P) in data set [5] was 0.95. Moreover, the “effect of co-treatment with IM-54 on toxicity” value with A549 cells [6] is recorded as “did not significantly affect the toxicity”. For the same compound, the “effect of co-incubation with necrostatin-1 on toxicity, A549” value in the data set with A549 cells [6] was “markedly decreased the toxicity”. For the same compound, the “induced ROS production in the presence of necrostatin-1” value with A549 cells [7] is “attenuated”. Further, the “intracellular ROS versus untreated control cells” value in the data set with A549 cells [7] is reported as “markedly higher levels of ROS”. Besides, in data set [8], the “IC50 in MEFs PARP-1+/+ compared with MEFs PARP-1−/−” value was “similar”.
